Data taken from patent EP0304244A2, “Propanediol derivatives, their production and use” (Takeda Chemical Industries, Ltd., priority 1987, dated 1989).

Tests used:
[1] = tested on: HL-60 cells (myelogenous leukemia cell lines); test: Inhibition of multiplication of HL-60 cells ([3H]thymidine incorporation); type: cell-based; conditions: Homo sapiens; HL-60 cells 2 x 10⁵cells/mℓ in GIT medium; 20 hours incubation then 4 hours with [³H]thymidine; 50% of the control group; read-out: Inhibition of Propagation of HL-60 cells(IC₅₀ : µg/mℓ)
Experimental: The effect of the compound of this invention in inhibiting multiplication of myelogenous leukemia cells (HL-60) is shown in Table 1. The assay was conducted as follows. HL-60 cells (myelogenous leukemia cell lines) were suspended (2 x 10⁵cells/mℓ) in a GIT culture medium (Wako Pure Chemical Industries, Ltd.). Each hole of a 96-hole Microwell plate was inoculated with 0.2 mℓ of the suspension. The plate was incubated statically for 20 hours (37°C and 5% CO₂), to which was added 1 µCi of [³H]thymidine(5 Ci/mmol.), and the incubation was continued for further 4 hours. For determination of the amount of thymidine incorporated into cells, acid-insoluble fractions were collected with a glass-filter, and the radioactivity was determined by means of a liquid scintillation counter. The concentration of the drug required for reducing the radioactivity incorporated into cells to 50% of the control group was assumed to be IC₅₀ value of the compound.

[2] = tested on: Sarcoma 180 cells; test: Antitumor action, subcutaneous Sarcoma 180 in mice, oral dosing, tumor weight; type: in vivo; conditions: ICR mice, 1 x 10⁵ Sarcoma 180 cells in dorsal subcutis; 0.3 mg/mouse orally 9 times from the 8th day; tumor weighed on the 21st day
Experimental: ICR mice (a group consisting of 6 mice) were inoculated with 1 x 10⁵ Sarcoma 180 cells per mouse in the dorsal subcutis, and then 0.3 mg/mouse of a test compound dissolved in physiological saline was orally administered 9 times starting from the 8th day (8th to 10th, 13th to 17th and 20th days). On the 21st day, a tumor was enucleated, and the weight of the tumor was measured. The ratio of tumor weight of the treated group against that of the control group without treatment by drug is shown in Table 4.

[3] = tested on: Sarcoma 180 cells; test: Antitumor action, intraperitoneal Sarcoma 180 in mice, life-span and survivors; type: in vivo; conditions: ICR mice, 1 x 10⁵ Sarcoma 180 cells i.p.; for Life-span prolonggation ratio (T/C,%): 0.33 mg/mouse i.p. three times (1 hour, 1 day, 2 days after inoculation), calculated only on died mice; for 60th day number of survivors/number of mice tested: 0.33 mg/mouse i.p. three times, 60th day after the initiation of the test
Experimental: ICR mice (a group consisting of 5 mice) were inoculated intraperitoneally with 1 x 10⁵ Sarcoma 180 cells per mouse. Then, 0.33 mg/mouse of a compound dissolved in physiological saline was intraperitoneally administered three times, i.e. 1 hour, 1 day and 2 days after the inoculation. Shown in Table 2 are the lifespan prolongation ratio against the control group without treatment and the number of surviving mice on the 60th day after the initiation of the test.

[4] = tested on: MM46 cells; test: Antitumor action, intraperitoneal MM46 in mice, life-span and survivors; type: in vivo; conditions: C3H/He mice, 1 x 10⁴ MM46 cells i.p.; 0.25 mg/mouse for 4 consecutive days from the second day after inoculation; 60th day after inoculation
Experimental: C3H/He mice (a group consisting of 5 mice) were inoculated intraperitoneally with 1 x 10⁴ MM46 cells per mouse, and given 0.25 mg/mouse of a drug for 4 consecutive days starting from the second day after the inoculation. Shown in Table 3 are the life-span prolongation ratio against the control group without treatment (provided that calculation was made on mice whose survival days were not longer than 60 days) and the number of surviving mice on the 60th day after the inoculation of MM46 cells.

| Structure (SMILES) | IC50 [1] | Weight of tumor (T/C,%) [2] | Life-span prolonggation ratio (T/C,%) [3] | 60th day number of survivors/number of mice tested [3] | 60th day No. of survivors/No. of mice tested [4] |
| --- | --- | --- | --- | --- | --- |
| CCCCCCCCCCCCCCCCCCOCCCOCCCCC[N+](C)(C)C.[Cl-] [Compound of Working Example 7, N-[5-[3-(octadecyloxy)propoxy]pentyl]N,N,N-trimethylammonium chloride] | 2.5 µg/mL |  |  |  |  |
| CCCCCCCCCCCCCCCCCCOCCCOCCCCCC[N+](C)(C)C.[Br-] [Compound of Working Example 3, 6-[3-(octadecyloxy)propoxy]hexyl-N,N,N-trimethylammonium bromide] | 1.25 µg/mL | 24% | 342% | 2/5 |  |
| CCCCCCCCCCCCCCCCCCOCCCOCCCCC[n+]1ccccc1.[Cl-] [Compound of Working Example 8, N-[5-[3-(octadecyloxy)propoxy]pentyl]pyridinium chloride] | 1.25 µg/mL |  |  |  |  |
| CCCCCCCCCCCCCCCCCCOCCCOCCCCCCCC[N+](C)(C)C.[Cl-] [Compound of Working Example 5, N-[8-[3-(octadecyloxy)propoxy]octyl]N,N,N-trimethylammonium chloride] | 5 µg/mL |  |  |  |  |
| CCCCCCCCCCCCCCCCCCOCCCOCCCC[N+](C)(C)C.CS(=O)(=O)[O-] [Compound of Working Example 1, N-[4-[3-(octadecyloxy)propoxy]butyl]N,N,N-trimethylammonium methanesulfonate] | 1.25 µg/mL |  | 295% | 2/5 | 5/5 |
| CCCCCCCCCCCCCCCCCCOCCCOCCCC[n+]1ccccc1.CS(=O)(=O)[O-] [Compound of Working Example 2, N-[4-[3-(octadecyloxy)propoxy]butyl]pyridinium methanesulfonate] | 0.62 µg/mL |  |  |  |  |
| CCCCCCCCCCCCCCCCCCOCCCOCCC[N+](C)(C)C.[Br-] [Compound of Working Example 4, 3-[3-(octadecyloxy)propoxy]propyl-N,N,N-trimethylammonium bromide] | 1.25 µg/mL |  |  |  |  |
